Each block holds one molecule with its values, some of them ahead of it. Active and inactive are the calls of the source. The rule behind the calls is not given here.
What was measured:
A549 = test: Cytotoxicity against human A549 cells assessed as reduction in cell viability measured after 48 hrs by SRB assay; format: functional, cell-based; settings: A549, 48 h
PANC-1 = test: Cytotoxicity against human PANC1 cells assessed as reduction in cell viability measured after 48 hrs by SRB assay; format: functional, cell-based; settings: PANC-1, 48 h
SiHa = test: Cytotoxicity against human SiHa cells assessed as reduction in cell viability measured after 48 hrs by SRB assay; format: functional, cell-based
HEK293 = test: Cytotoxicity against HEK293 cells assessed as reduction in cell viability measured after 48 hrs by SRB assay; format: cell-based; settings: Homo sapiens, HEK293, 48 h
[1] = Selectivity index, ratio of IC50 for HEK293 cells to IC50 for human DU145 cells; format: toxicity; settings: HEK293 cells versus DU145 cells, read-out: Ratio IC50
IMR-32 = test: Cytotoxicity against human IMR32 cells assessed as reduction in cell viability measured after 48 hrs by SRB assay; format: functional, cell-based; settings: IMR-32, 48 h
MDA-MB-231 = test: Cytotoxicity against human MDA-MB-231 cells assessed as reduction in cell viability measured after 48 hrs by SRB assay; format: functional, cell-based; settings: MDA-MB-231, 48 h
DU-145 = test: Cytotoxicity against human DU145 cells assessed as reduction in cell viability measured after 48 hrs by SRB assay; format: functional, cell-based; settings: DU-145, 48 h
Tubulin (Homo sapiens) [2] = target: T1, Tubulin (Homo sapiens) (UniProt P68371+Q9H4B7+P0DPH7+P68366+Q13509+Q71U36+P04350+Q3ZCM7+P07437+P68363+Q9BQE3+Q6PEY2+Q13885+Q9BVA1+Q9BUF5); test: Induction of tubulin polymerization in human HeLa cells assessed as increase in insoluble tubulin fraction after 24 hrs by Western blot analysis; format: cell-based
HeLa [3] = test: Cell cycle arrest in human HeLa cells assessed as G2/M phase accumulation after 24 hrs by propidium iodide staining based flow cytometric analysis; format: functional
HeLa [4] = test: Cell cycle arrest in human HeLa cells assessed as G2/M phase accumulation at 20 uM after 24 hrs by propidium iodide staining based flow cytometric analysis (reference value: 29.18%); format: functional
HeLa [5] = test: Cell cycle arrest in human HeLa cells assessed as G2/M phase accumulation at 5 uM after 24 hrs by propidium iodide staining based flow cytometric analysis (reference value: 29.18%); format: functional
Bos taurus = species on record: Bos taurus; test: Induction of bovine brain tubulin polymerization at 5 uM measured for 1 hr at 1 min interval by fluorescence assay relative to control
HeLa [6] = test: Cell cycle arrest in human HeLa cells assessed as G2/M phase accumulation at 10 uM after 24 hrs by propidium iodide staining based flow cytometric analysis (reference value: 29.18%); format: functional
Tubulin (Homo sapiens) [7] = target: T1, Tubulin (Homo sapiens); test: Induction of tubulin polymerization in human HeLa cells assessed as chromosomal alignment on metaphase plate at 10 uM after 24 hrs by DAPI staining/confocal microscopy-based immunofluorescence analysis; format: cell-based

SMILES: C#CCO/N=C1\c2cc(OC)c(OC)c(OC)c2-c2c(cc3c(c2OC)OCO3)C[C@H](C)[C@@]1(C)O
IC50 (A549): 98.1 µM | IC50 (PANC-1): 97.2 µM | IC50 (SiHa): 96.1 µM | IC50 (HEK293): > 100 µM | selectivity ratio [1]: 1.01 | IC50 (IMR-32): 82.6 µM | IC50 (MDA-MB-231): 80.4 µM | IC50 (DU-145): 99.5 µM

SMILES: COc1cccc2c1C(=O)c1c(O)c3c(c(O)c1C2=O)C[C@@](O)(C(=O)CO)C[C@@H]3O[C@H]1C[C@H](N)[C@H](O)[C@H](C)O1 [DOXORUBICIN]
IC50 (A549): 1.6 µM | IC50 (PANC-1): 1.9 µM | IC50 (SiHa): 1.5 µM | IC50 (HEK293): 10 µM | IC50 (IMR-32): 2.3 µM | IC50 (DU-145): 2.4 µM

SMILES: COc1ccc(OC)c(-n2cc(CO/N=C3\c4cc(OC)c(OC)c(OC)c4-c4c(cc5c(c4OC)OCO5)C[C@H](C)[C@@]3(C)O)nn2)c1
IC50 (A549): 91.8 µM | IC50 (PANC-1): 81.2 µM | IC50 (SiHa): 74.3 µM | IC50 (HEK293): > 100 µM | selectivity ratio [1]: 1.1 | IC50 (IMR-32): 76.5 µM | IC50 (MDA-MB-231): 73.8 µM | IC50 (DU-145): 86.7 µM

SMILES: COc1cc2c(c(OC)c1OC)-c1c(cc3c(c1OC)OCO3)C[C@H](C)[C@@](C)(O)/C2=N/OCc1cn(-c2ccc(I)cc2)nn1
IC50 (A549): 90.8 µM | IC50 (PANC-1): 83.4 µM | IC50 (SiHa): 76.4 µM | IC50 (HEK293): > 100 µM | selectivity ratio [1]: 1.1 | IC50 (IMR-32): 89.7 µM | IC50 (MDA-MB-231): 76.8 µM | IC50 (DU-145): 89.4 µM

Activity (Tubulin (Homo sapiens) [2]): Dose-dependent effect | fold change (FC) (Bos taurus): 1.25 | Activity (Tubulin (Homo sapiens) [7]): Active
SMILES: COc1cc2c(c(OC)c1OC)-c1c(cc3c(c1OC)OCO3)C[C@H](C)[C@@](C)(O)/C2=N/OCc1cn(-c2ccc([N+](=O)[O-])c(Cl)c2)nn1
Activity (HeLa [3]): Dose-dependent effect | Activity (HeLa [4]): 46.83% | IC50 (A549): 7.9 µM | Activity (HeLa [5]): 37.11% | IC50 (HEK293): 50.2 µM | Activity (HeLa [6]): 43.06% | IC50 (IMR-32): 8.6 µM | IC50 (MDA-MB-231): 11.4 µM | IC50 (DU-145): 12.8 µM

SMILES: COc1cc2c(c(OC)c1OC)-c1c(cc3c(c1OC)OCO3)C[C@H](C)[C@@](C)(O)/C2=N/OCc1cn(-c2ccc(C(C)=O)cc2)nn1
IC50 (A549): 95.7 µM | IC50 (PANC-1): 80.3 µM | IC50 (SiHa): 71.1 µM | IC50 (HEK293): > 100 µM | selectivity ratio [1]: 1.08 | IC50 (IMR-32): 86.4 µM | IC50 (MDA-MB-231): 70.8 µM | IC50 (DU-145): 92.4 µM

SMILES: CCc1ccc(-n2cc(CO/N=C3\c4cc(OC)c(OC)c(OC)c4-c4c(cc5c(c4OC)OCO5)C[C@H](C)[C@@]3(C)O)nn2)cc1
IC50 (A549): 93.8 µM | IC50 (PANC-1): 83.4 µM | IC50 (SiHa): 89.7 µM | IC50 (HEK293): > 100 µM | selectivity ratio [1]: 1.1 | IC50 (IMR-32): 75.8 µM | IC50 (MDA-MB-231): 79.1 µM | IC50 (DU-145): 91.7 µM

SMILES: COc1cc2c(c(OC)c1OC)-c1c(cc3c(c1OC)OCO3)C[C@H](C)[C@@](C)(O)/C2=N/OCc1cn(-c2cccc([N+](=O)[O-])c2)nn1
IC50 (A549): 96.1 µM | IC50 (PANC-1): 95.7 µM | IC50 (SiHa): 96.5 µM | IC50 (HEK293): > 100 µM | selectivity ratio [1]: 1 | IC50 (IMR-32): 86.1 µM | IC50 (MDA-MB-231): 83.7 µM | IC50 (DU-145): 98.4 µM

SMILES: COc1cc2c(c(OC)c1OC)-c1c(cc3c(c1OC)OCO3)C[C@H](C)[C@@](C)(O)/C2=N/OCc1cn(-c2cccc(C)c2Cl)nn1
IC50 (A549): 85.6 µM | IC50 (PANC-1): 81.9 µM | IC50 (SiHa): 69.2 µM | IC50 (HEK293): > 100 µM | selectivity ratio [1]: 1.1 | IC50 (IMR-32): 78.3 µM | IC50 (MDA-MB-231): 73.8 µM | IC50 (DU-145): 88.6 µM

SMILES: COc1cc2c(c(OC)c1OC)-c1c(cc3c(c1OC)OCO3)C[C@H](C)[C@@](C)(O)/C2=N/OCc1cn(-c2ccc(Cl)cc2)nn1
IC50 (A549): > 100 µM | IC50 (PANC-1): 92.7 µM | IC50 (SiHa): 98.5 µM | IC50 (HEK293): > 100 µM | selectivity ratio [1]: 1.01 | IC50 (IMR-32): 83.9 µM | IC50 (MDA-MB-231): 82.6 µM | IC50 (DU-145): 99.4 µM

SMILES: COc1cc2c(c(OC)c1OC)-c1c(cc3c(c1OC)OCO3)C[C@H](C)[C@@](C)(O)/C2=N/O
IC50 (A549): 96.4 µM | IC50 (PANC-1): 84.9 µM | IC50 (SiHa): 83.4 µM | IC50 (HEK293): > 100 µM | selectivity ratio [1]: 1.05 | IC50 (IMR-32): 81.4 µM | IC50 (MDA-MB-231): 79.5 µM | IC50 (DU-145): 94.7 µM

SMILES: COc1cc2c(c(OC)c1OC)-c1c(cc3c(c1OC)OCO3)C[C@H](C)[C@@](C)(O)/C2=N/OCc1cn(CC(=O)Nc2ccc(I)cc2Cl)nn1
IC50 (A549): 97.5 µM | IC50 (PANC-1): 92.1 µM | IC50 (SiHa): 86.4 µM | IC50 (HEK293): > 100 µM | selectivity ratio [1]: 1.01 | IC50 (IMR-32): 81.6 µM | IC50 (MDA-MB-231): 82.9 µM | IC50 (DU-145): 98.7 µM

SMILES: COc1cc2c(c(OC)c1OC)-c1c(cc3c(c1OC)OCO3)C[C@H](C)[C@@](C)(O)C2=O
IC50 (A549): 94.8 µM | IC50 (PANC-1): 88.6 µM | IC50 (SiHa): 75.1 µM | IC50 (HEK293): > 100 µM | selectivity ratio [1]: 1.2 | IC50 (IMR-32): 72.3 µM | IC50 (MDA-MB-231): 73.1 µM | IC50 (DU-145): 83.1 µM
